Columns and labels:
FAAH = FAAH (Mus musculus (Mouse), UniProt O08914); experiment: Mouse brain proteomes from inhibitor treated mice (oral gavage, sacrifice 4 h after administration, ABPP analysis), FAAH; assay type: in vivo; settings: 5 mg/kg oral gavage
Description: (§1) Preparation of Mouse Brain Proteomes from Inhibitor Treated Mice.
(§2) Inhibitors were administered to wild-type C57Bl/6J by oral gavage in a vehicle, e.g. PEG400/Ethanol/PBS (7/2/1). Each animal was sacrificed 4 h following administration and brain proteomes were prepared and analyzed according to previously established methods (See Niphakis, M. J., et al. (2011) ACS Chem. Neurosci. and Long, J. Z., et al. Nat. Chem. Biol. 5:37-44). Data from this assay is shown in Table 2 (% inhibition at 5 mg/kg).

ABHD6 = ABHD6 (Mus musculus (Mouse), UniProt Q8R2Y0); experiment: Mouse brain proteomes from inhibitor treated mice (oral gavage, sacrifice 4 h after administration, ABPP analysis), ABHD6; assay type: in vivo; settings: 5 mg/kg oral gavage
Chain of ABHD6 (Q8R2Y0 whole entry): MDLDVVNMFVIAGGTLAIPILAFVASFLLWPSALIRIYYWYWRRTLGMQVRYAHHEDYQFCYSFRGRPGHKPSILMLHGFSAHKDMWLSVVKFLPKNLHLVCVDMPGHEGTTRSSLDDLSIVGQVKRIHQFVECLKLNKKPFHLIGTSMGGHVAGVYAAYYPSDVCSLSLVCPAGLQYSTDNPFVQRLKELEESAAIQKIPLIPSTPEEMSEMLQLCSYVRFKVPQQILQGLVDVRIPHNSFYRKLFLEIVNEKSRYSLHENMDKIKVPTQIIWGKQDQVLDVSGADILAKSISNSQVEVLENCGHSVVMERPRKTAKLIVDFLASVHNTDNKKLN
Description: as §1, §2

Chain of FAAH (O08914 whole entry): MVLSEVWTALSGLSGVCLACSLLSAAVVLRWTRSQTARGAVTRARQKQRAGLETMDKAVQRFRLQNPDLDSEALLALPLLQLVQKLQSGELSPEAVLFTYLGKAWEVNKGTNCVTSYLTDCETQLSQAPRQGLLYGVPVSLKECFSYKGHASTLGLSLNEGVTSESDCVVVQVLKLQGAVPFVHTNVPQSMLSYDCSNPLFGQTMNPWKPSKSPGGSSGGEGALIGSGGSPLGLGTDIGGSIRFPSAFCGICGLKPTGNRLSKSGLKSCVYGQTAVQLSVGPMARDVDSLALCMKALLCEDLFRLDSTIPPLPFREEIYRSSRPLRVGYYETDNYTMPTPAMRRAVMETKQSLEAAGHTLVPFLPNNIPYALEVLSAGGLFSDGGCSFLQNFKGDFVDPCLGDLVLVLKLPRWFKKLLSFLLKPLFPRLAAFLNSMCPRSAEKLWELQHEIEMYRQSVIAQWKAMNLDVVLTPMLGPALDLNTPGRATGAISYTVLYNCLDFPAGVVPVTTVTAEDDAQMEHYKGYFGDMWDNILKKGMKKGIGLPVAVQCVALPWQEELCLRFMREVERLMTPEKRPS

SMILES | FAAH % Inh 5 mg/kg (mouse) (FAAH) | ABHD6 % Inh 5 mg/kg (mouse) (ABHD6)
O=C(OC(C(F)(F)F)C(F)(F)F)N1CCC2(CCCN2Cc2cc(N3CCC(F)CC3)cc(C(F)(F)F)c2)CC1 [Example 45, 1,1,1,3,3,3-Hexafluoropropan-2-yl 1-(3-(4-fluoropiperidin-1-yl)-5-(trifluoromethyl)benzyl)-1,8-diazaspiro[4.5]decane-8-carboxylate] | # (# is < 25%) | # (# is < 25%)
O=C(OC(C(F)(F)F)C(F)(F)F)N1CCC2(CCCN2Cc2ccc(C(F)(F)F)cc2N2CCC(F)(F)CC2)CC1 [Example 90, 1,1,1,3,3,3-Hexafluoropropan-2-yl 1-(2-(4,4-difluoropiperidin-1-yl)-4-(trifluoromethyl)benzyl)-1,8-diazaspiro[4.5]decane-8-carboxylate] | # (# is < 25%) | # (# is < 25%)
O=C(OC(C(F)(F)F)C(F)(F)F)N1CCC2(CCCN2Cc2ccc(C(F)(F)F)cc2N2CCCCC2)CC1 [Example 78, 1,1,1,3,3,3-Hexafluoropropan-2-yl 1-(2-(piperidin-1-yl)-4-(trifluoromethyl)benzyl)-1,8-diazaspiro[4.5]decane-8-carboxylate] | # (# is < 25%) | # (# is < 25%)
O=C(O)C1CCN(Cc2cc(CN3CCCC34CCN(C(=O)OC(C(F)(F)F)C(F)(F)F)CC4)cc(C(F)(F)F)c2)C1 (stereo not shown) [Example 253] | # (# is < 25%) | # (# is < 25%)
O=C(OC(C(F)(F)F)C(F)(F)F)N1CCC2(CCN(Cc3ccc(C(F)(F)F)cc3N3CC4COCC4C3)C2)CC1 (stereo not shown) [Example 26, 1,1,1,3,3,3-Hexafluoropropan-2-yl 2-(2-(tetrahydro-1H-furo[3,4-c]pyrrol-5(3H)-yl)-4-(trifluoromethyl)benzyl)-2,8-diazaspiro[4.5]decane-8-carboxylate] | # (# is < 25%) | # (# is < 25%)
CC(=O)N1CCN(c2cc(C(F)(F)F)ccc2CN2CCCC23CCN(C(=O)OC(C(F)(F)F)C(F)(F)F)CC3)CC1 [Example 88, 1,1,1,3,3,3-Hexafluoropropan-2-yl 1-(2-(4-acetylpiperazin-1-yl)-4-(trifluoromethyl)benzyl)-1,8-diazaspiro[4.5]decane-8-carboxylate] | # (# is < 25%) | # (# is < 25%)
O=C(OC(C(F)(F)F)C(F)(F)F)N1CCC2(CCCN2Cc2cc(Oc3cccnc3)cc(C(F)(F)F)c2)CC1 [Example 174, 1,1,1,3,3,3-Hexafluoropropan-2-yl 1-(3-(pyridin-3-yloxy)-5-(trifluoromethyl)benzyl)-1,8-diazaspiro[4.5]decane-8-carboxylate] | # (# is < 25%) | # (# is < 25%)
O=C(OC(C(F)(F)F)C(F)(F)F)N1CCC2(CCCN2Cc2ccc(C(F)(F)F)cc2N2CCN(CCF)CC2)CC1 [Example 20, 1,1,1,3,3,3-Hexafluoropropan-2-yl 1-(2-(4-(2-fluoroethyl)piperazin-1-yl)-4-(trifluoromethyl)benzyl)-1,8-diazaspiro[4.5]decane-8-carboxylate] | # (# is < 25%) | # (# is < 25%)
CC1(C)CC2(CCN(C(=O)OC(C(F)(F)F)C(F)(F)F)CC2)CN1Cc1cccc(Cl)c1N1CCOCC1 [Example 54, 1,1,1,3,3,3-Hexafluoropropan-2-yl 2-(3-chloro-2-morpholinobenzyl)-3,3-dimethyl-2,8-diazaspiro[4.5]decane-8-carboxylate] | # (# is < 25%) | # (# is < 25%)
CS(=O)(=O)C1CCN(c2cc(C(F)(F)F)ccc2CN2CCCC23CCN(C(=O)OC(C(F)(F)F)C(F)(F)F)CC3)C1 (stereo not shown) [Example 193, 1,1,1,3,3,3-Hexafluoropropan-2-yl 1-(2-(3-(methylsulfonyl)pyrrolidin-1-yl)-4-(trifluoromethyl)benzyl)-1,8-diazaspiro[4.5]decane-8-carboxylate] | # (# is < 25%) | # (# is < 25%)
O=C(OC(C(F)(F)F)C(F)(F)F)N1CCC2(CCCN2Cc2cc(OC3CCOCC3)cc(C(F)(F)F)c2)CC1 [Example 170, 1,1,1,3,3,3-Hexafluoropropan-2-yl 1-(3-(tetrahydro-2H-pyran-4-yloxy)-5-(trifluoromethyl)benzyl)-1,8-diazaspiro[4.5]decane-8-carboxylate] | # (# is < 25%) | # (# is < 25%)
O=C(O)C1CCN(Cc2cc(CN3CCCC34CCN(C(=O)OC(C(F)(F)F)C(F)(F)F)CC4)cc(OC(F)(F)F)c2)C1 (stereo not shown) [Example 270] | # (# is < 25%) | # (# is < 25%)
O=C(COc1cc(CN2CCCC23CCN(C(=O)OC(C(F)(F)F)C(F)(F)F)CC3)cc(C(F)(F)F)c1)N1CCCC1 [Example 168, 1,1,1,3,3,3-Hexafluoropropan-2-yl 1-(3-(2-oxo-2-(pyrrolidin-1-yl)ethoxy)-5-(trifluoromethyl)benzyl)-1,8-diazaspiro[4.5]decane-8-carboxylate] | # (# is < 25%) | # (# is < 25%)
O=C(OC(C(F)(F)F)C(F)(F)F)N1CCC2(CCCN2Cc2ccc(C(F)(F)F)cc2Oc2cccnc2)CC1 [Example 173, 1,1,1,3,3,3-Hexafluoropropan-2-yl 1-(2-(pyridin-3-yloxy)-4-(trifluoromethyl)benzyl)-1,8-diazaspiro[4.5]decane-8-carboxylate] | # (# is < 25%) | # (# is < 25%)
O=C(OC(C(F)(F)F)C(F)(F)F)N1CCC2(CCN(Cc3ccc(C(F)(F)F)cc3N3CCCCC3)C2)CC1 [Example 23, 1,1,1,3,3,3-Hexafluoropropan-2-yl 2-(2-(piperidin-1-yl)-4-(trifluoromethyl)benzyl)-2,8-diazaspiro[4.5]decane-8-carboxylate] | # (# is < 25%) | # (# is < 25%)
CC1(C(=O)O)CCN(c2cc(C(F)(F)F)ccc2CN2CCCC23CCN(C(=O)OC(C(F)(F)F)C(F)(F)F)CC3)C1 (stereo not shown) [Example 230] | # (# is < 25%) | # (# is < 25%)
O=C(O)C1COCCN1c1cc(CN2CCCC23CCN(C(=O)OC(C(F)(F)F)C(F)(F)F)CC3)cc(C(F)(F)F)c1 (stereo not shown) [Example 200] | # (# is < 25%) | # (# is < 25%)
CC(=O)NC1CCN(c2cc(Cl)ccc2CN2CCCC23CCN(C(=O)OC(C(F)(F)F)C(F)(F)F)CC3)CC1 [Example 104, 1,1,1,3,3,3-Hexafluoropropan-2-yl 1-(2-(4-acetamidopiperidin-1-yl)-4-chlorobenzyl)-1,8-diazaspiro[4.5]decane-8-carboxylate] | # (# is < 25%) | # (# is < 25%)
O=C(OC(C(F)(F)F)C(F)(F)F)N1CCC2(CCN(Cc3ccc(Cl)cc3N3CC4COCC4C3)C2)CC1 (stereo not shown) [Example 25, 1,1,1,3,3,3-Hexafluoropropan-2-yl 2-(4-chloro-2-(tetrahydro-1H-furo[3,4-c]pyrrol-5(3H)-yl)benzyl)-2,8-diazaspiro[4.5]decane-8-carboxylate] | # (# is < 25%) | # (# is < 25%)
O=C(O)C1CCN(c2cc(C(F)(F)F)ccc2CN2CCCC23CCN(C(=O)OC(C(F)(F)F)C(F)(F)F)CC3)C1 (stereo not shown) [Example 199] | # (# is < 25%) | # (# is < 25%)
N#Cc1ccc(CN2CCCC23CCN(C(=O)OC(C(F)(F)F)C(F)(F)F)CC3)c(N2CCC(C(=O)O)CC2)c1 [Example 249] | # (# is < 25%) | # (# is < 25%)
CS(=O)(=O)C1CN(c2cc(C(F)(F)F)ccc2CN2CCCC23CCN(C(=O)OC(C(F)(F)F)C(F)(F)F)CC3)C1 [Example 268] | # (# is < 25%) | –
CC1(C(=O)O)CCCN(c2cc(C(F)(F)F)ccc2CN2CCC3(CCN(C(=O)OC(C(F)(F)F)C(F)(F)F)CC3)C2)C1 (stereo not shown) [Example 216] | # (# is < 25%) | # (# is < 25%)
CC1(C)CC2(CCN(C(=O)OC(C(F)(F)F)C(F)(F)F)CC2)CN1Cc1ccc(C(F)(F)F)cc1N1CCOCC1 [Example 51, 1,1,1,3,3,3-Hexafluoropropan-2-yl 3,3-dimethyl-2-(2-morpholino-4-(trifluoromethyl)benzyl)-2,8-diazaspiro[4.5]decane-8-carboxylate] | # (# is < 25%) | # (# is < 25%)
O=C(O)C1CCN(Cc2cc(CN3CCCC34CCN(C(=O)OC(C(F)(F)F)C(F)(F)F)CC4)cc(OC(F)(F)F)c2)CC1 [Example 269] | # (# is < 25%) | # (# is < 25%)
O=C(OC(C(F)(F)F)C(F)(F)F)N1CCC2(CCCN2Cc2ccc(Cl)cc2N2CCCCC2)CC1 [Example 74, 1,1,1,3,3,3-Hexafluoropropan-2-yl 1-(4-chloro-2-(piperidin-1-yl)benzyl)-1,8-diazaspiro[4.5]decane-8-carboxylate] | # (# is < 25%) | # (# is < 25%)
O=C(OC(C(F)(F)F)C(F)(F)F)N1CCC2(CCN(Cc3cccc(Cl)c3N3CCC(F)CC3)C2)CC1 [Example 65, 1,1,1,3,3,3-Hexafluoropropan-2-yl 2-(3-chloro-2-(4-fluoropiperidin-1-yl)benzyl)-2,8-diazaspiro[4.5]decane-8-carboxylate] | # (# is < 25%) | –

Reference: patent US10781211B2, “Spirocycle compounds and methods of making and using same” (Lundbeck La Jolla Research Center, Inc., priority 2016, dated 2020)
